Several values for one entry are separate records, joined by “and”; a condition that tells them apart may be missing. Equal values may be shown once. Read-outs that look alike come from different tables or passages of the source. Values belong to the compound of their own block, whether it stands above or below them.
Assays:
[1] = descriptive term; cited from earlier work
Refractive index = format: physicochemical; conditions: selected SFA's, neat
[2] = Droplet size (weight and volume) from three droppers; format: physicochemical; conditions: 25° C.; for droplet volume, Glass pipette / droplet weight, Glass pipette: 2 mL glass Pasteur pipette; for droplet volume, Glass pipette / droplet volume, Injection needle / droplet volume, Eye dropper: calculated from weight; for droplet weight, Glass pipette / droplet weight, Injection needle / droplet weight, Eye dropper: mean ± SD of 10; for droplet volume, Injection needle / droplet weight, Injection needle: 20 G injection needle; for droplet volume, Eye dropper / droplet weight, Eye dropper: dropper of commercial eye drops (Hylo-Vision)
Protocol: The droplet size of selected SFA's in terms of weight and volume of droplets from three droppers was determined and compared to that of purified water. The devices used for dispensing the droplets were (a) a 2 mL Pasteur pipette (wall thickness 0.53 mm; external tip diameter: 1.50 mm; length: 150 mm) made of glass, (b) a 20 G (0.9 mm×50 mm) injection needle, and (c) a dropper from a commercial eye drops product (Hylo-Vision). The droplet weights were measured at 25° C. using a laboratory balance; the volumes were calculated. Each test was performed 10 times.

E. coli (ATCC 8739) = assay: Antimicrobial preservative effectiveness test (USP 32 <51>); format: cell-based, Escherichia coli; conditions: for cfu/mL 0 h / cfu/mL 24 h / cfu/mL 48 h: approx. 22.5° C.
Protocol: (§1) An antimicrobial preservative effectiveness test in analogy to that of USP 32 <51> was carried out. Sample vials comprising […] or F6H8, respectively, were inoculated with Escherichia coli, Pseudomonas aeruginosa, Staphylococcus aureus, Candida albicans and Aspergillus niger and incubated at approx. 22.5° C.

[3] = test system: P. aeruginosa (ATCC 9027); assay: as above; format: cell-based, Pseudomonas aeruginosa; conditions: for cfu/mL 0 h / cfu/mL 24 h / cfu/mL 48 h: approx. 22.5° C.
Protocol: as §1

S. aureus (ATCC 6538) = assay: as above; format: cell-based, Staphylococcus aureus; conditions: for cfu/mL 0 h / cfu/mL 24 h / cfu/mL 48 h: approx. 22.5° C.
Protocol: as §1

C. albicans (ATCC 10231) = assay: as above; format: cell-based, Candida albicans; conditions: for cfu/mL 0 h / cfu/mL 24 h / cfu/mL 48 h: approx. 22.5° C.
Protocol: as §1

A. niger (ATCC 16404) = assay: as above; format: cell-based, Aspergillus niger; conditions: for cfu/mL 0 h / cfu/mL 24 h / cfu/mL 48 h / cfu/mL 6 d: approx. 22.5° C.
Protocol: as §1

rabbit eyes (cornea) [4] = test system: rabbit eyes (cornea)
[5] = Contact angle (wetting) on compressed drug tablets
[6] = typical values for comparison; water at room temperature (RT); cited from earlier work
[7] = Solubility of latanoprost in F4H5/ethanol by HPLC; format: physicochemical; conditions: F4H5/ethanol mixture (99:1 by weight), organic solvent or mixture, thermodynamic from solid; in mixture of F4H5 and ethanol (ratio 99:1 by weight)
Protocol: In a separate experiment, the solubility of latanoprost in a mixture of F4H5 and ethanol (ratio 99:1 by weight) was determined by HPLC according to Ph.Eur.2.2.29 after rotation evaporation of the solvent methyl acetate in vacuo, addition of the solvent under examination of the residue and determination of the dissolved amount.

rabbit eyes (cornea) [8] = assay: Ex-vivo eye irritation test (EVEIT), corneal lesions by abrasion
[9] = on fenofibrate tablet (150 mg, 15-20 kN, 13 mm)
[10] = on trospium chloride tablet (150 mg, 15-20 kN, 13 mm)

Compound: CCNC(=O)CCC/C=C\C[C@@H]1[C@@H](/C=C/[C@@H](O)CCc2ccccc2)[C@H](O)C[C@@H]1O [Bimatoprost, (Z)-7-[(1R,2R,3R,5S)-3,5-Dihydroxy-2-[(1E,3S)-3-hydroxy-5-phenyl-1-pentenyl]cyclopentyl]-N-ethyl-5-heptenamide]
solubility in water [1]: slightly soluble

Compound: CCCCC(F)(F)C(F)(F)C(F)(F)C(F)(F)F [Example F4H4]
Refractive index (Refractive index): 1,308

Compound: CCCCCC(F)(F)C(F)(F)C(F)(F)C(F)(F)F [Example F4H5]
Refractive index (Refractive index): 1,3204
droplet volume, Glass pipette [2]: 4.7 ± 0.3 µL
droplet weight, Glass pipette [2]: 6.0 ± 0.4 mg
droplet volume, Injection needle [2]: 2.0 ± 0.3 µL
droplet weight, Injection needle [2]: 2.6 ± 0.4 mg
droplet volume, Eye dropper [2]: 9.6 ± 0.2 µL
droplet weight, Eye dropper [2]: 12.4 ± 0.2 mg
cfu/mL 0 h (E. coli (ATCC 8739)): 1 600 cfu/mL
Change in log steps 24 h (E. coli (ATCC 8739)): ≤−1.2 log steps
cfu/mL 24 h (E. coli (ATCC 8739)): <100 cfu/mL
Change in log steps 48 h (E. coli (ATCC 8739)): ≤−1.2 log steps
cfu/mL 48 h (E. coli (ATCC 8739)): <100 cfu/mL
cfu/mL 0 h [3]: 1 600 cfu/mL
Change in log steps 24 h [3]: ≤−1.2 log steps
cfu/mL 24 h [3]: <100 cfu/mL
Change in log steps 48 h [3]: ≤−1.2 log steps
cfu/mL 48 h [3]: <100 cfu/mL
cfu/mL 0 h (S. aureus (ATCC 6538)): 2 900 cfu/mL
Change in log steps 24 h (S. aureus (ATCC 6538)): ≤−1.4 log steps
cfu/mL 24 h (S. aureus (ATCC 6538)): <100 cfu/mL
Change in log steps 48 h (S. aureus (ATCC 6538)): ≤−1.4 log steps
cfu/mL 48 h (S. aureus (ATCC 6538)): <100 cfu/mL
cfu/mL 0 h (C. albicans (ATCC 10231)): 1 500 cfu/mL
Change in log steps 24 h (C. albicans (ATCC 10231)): ≤−1.2 log steps
cfu/mL 24 h (C. albicans (ATCC 10231)): <100 cfu/mL
Change in log steps 48 h (C. albicans (ATCC 10231)): ≤−1.1 log steps
cfu/mL 48 h (C. albicans (ATCC 10231)): <100 cfu/mL
cfu/mL 0 h (A. niger (ATCC 16404)): 3 000 cfu/mL
Change in log steps 24 h (A. niger (ATCC 16404)): ≤−1.4 log steps
cfu/mL 24 h (A. niger (ATCC 16404)): <100 cfu/mL
Change in log steps 48 h (A. niger (ATCC 16404)): ≤−1.2 log steps
cfu/mL 48 h (A. niger (ATCC 16404)): <100 cfu/mL
Change in log steps 6 d (A. niger (ATCC 16404)): ≤−1.2 log steps
cfu/mL 6 d (A. niger (ATCC 16404)): <100 cfu/mL
morphological and histological evaluation of cornea (rabbit eyes (cornea) [4]): entirely clear at the end of the tests, with healthy and smooth surface morphology
penetration into the cornea (OCT imaging) (rabbit eyes (cornea) [4]): no indication of penetration
tolerability by the eye (rabbit eyes (cornea) [4]): better tolerated than culture medium
contact angle [5, 9]: not measurable
contact angle [5, 10]: not measurable

Compound: CCCCCCC(F)(F)C(F)(F)C(F)(F)C(F)(F)F [Example F4H6]
Refractive index (Refractive index): 1,334

Compound: CCCCCCCC(F)(F)C(F)(F)C(F)(F)C(F)(F)F [Example F4H7]
Refractive index (Refractive index): 1,3357

Compound: CCCCCCCCC(F)(F)C(F)(F)C(F)(F)C(F)(F)F [Example F4H8]
Refractive index (Refractive index): 1,348

Compound: O [Water, reference compound]
droplet volume, Glass pipette [2]: 31.3 ± 1.4 µL
droplet weight, Glass pipette [2]: 31.2 ± 1.4 mg
droplet volume, Injection needle [2]: 11.1 ± 0.9 µL
droplet weight, Injection needle [2]: 11.0 ± 0.9 mg
droplet volume, Eye dropper [2]: 36.1 ± 2.2 µL
droplet weight, Eye dropper [2]: 36.0 ± 2.2 mg
Refractive index [6]: 1.333
contact angle [5, 9]: 92.5 °

Compound: CC(C)OC(=O)CCCC=CCC1C(O)CC(O)C1C=CC(O)COc1cccc(C(F)(F)F)c1 (stereo not shown) [travoprost, propan-2-yl 7-[3,5-dihydroxy-2-[3-hydroxy-4-[3-(trifluoromethyl)phenoxy]-but-1-enyl]-cyclopentyl]hept-5-enoate]
solubility in water [1]: practically insoluble

Compound: CCCCCCCC(=O)CC[C@@H]1[C@@H](C/C=C\CCCC(=O)O)[C@@H](O)C[C@H]1O [unoprostone]
solubility in water [1]: practically insoluble

Compound: benzalkonium chloride [BAC, reference compound]
Final size of corneal lesions (rabbit eyes (cornea) [4]): >60 mm^2
Initial size of corneal lesions (rabbit eyes (cornea) [4]): 16.05 mm^2
healing of corneal lesions (rabbit eyes (cornea) [4]): rapid growth of the lesions
morphological and histological evaluation of cornea (rabbit eyes (cornea) [4]): complete disintegration of the corneal epithelium

Compound: hyaluronic acid [HA]
morphological and histological evaluation of cornea (rabbit eyes (cornea) [8]; at end of test): entirely clear at the end of the tests, with healthy and smooth surface morphology
Initial size of corneal lesions (rabbit eyes (cornea) [8]; before the test, separate runs): 13.22 mm^2 and 16.03 mm^2 and 14.87 mm^2
healing of corneal lesions (rabbit eyes (cornea) [8]; ex-vivo rabbit eye, 3 days, fluorescein staining): Substantial healing
Change of lesion size (rabbit eyes (cornea) [8]; final vs initial size, 3 days, separate runs): −97.3% and −98.5% and −100%

Continued, in another order:

Refractive index (Refractive index): 1,295
Compound: CCC(F)(F)C(F)(F)C(F)(F)C(F)(F)C(F)(F)C(F)(F)F [Example F6H2]

Refractive index (Refractive index): 1,306
Compound: CCCCC(F)(F)C(F)(F)C(F)(F)C(F)(F)C(F)(F)C(F)(F)F [Example F6H4]

Refractive index (Refractive index): 1,3224
Compound: CCCCCCC(F)(F)C(F)(F)C(F)(F)C(F)(F)C(F)(F)C(F)(F)F [Example F6H6]

Refractive index (Refractive index): 1,3366
Compound: CCCCCCCC(F)(F)C(F)(F)C(F)(F)C(F)(F)C(F)(F)C(F)(F)F [Example F6H7]

Refractive index (Refractive index): 1,3432
droplet volume, Glass pipette [2]: 5.0 ± 0.4 µL
droplet weight, Glass pipette [2]: 6.6 ± 0.6 mg
droplet volume, Injection needle [2]: 2.5 ± 0.1 µL
droplet weight, Injection needle [2]: 3.4 ± 0.2 mg
droplet volume, Eye dropper [2]: 10.3 ± 0.3 µL
droplet weight, Eye dropper [2]: 13.7 ± 0.4 mg
Change of lesion size (rabbit eyes (cornea) [4]): −100.0%
Final size of corneal lesions (rabbit eyes (cornea) [4]): 0.00 mm^2
healing of corneal lesions (rabbit eyes (cornea) [4]): all lesions healed fully
contact angle [5, 9]: not measurable
contact angle [5, 10]: not measurable
Compound: CCCCCCCCC(F)(F)C(F)(F)C(F)(F)C(F)(F)C(F)(F)C(F)(F)F [Example F6H8]
cfu/mL 0 h (E. coli (ATCC 8739)): 1 600 cfu/mL
Change in log steps 24 h (E. coli (ATCC 8739)): ≤−1.2 log steps
cfu/mL 24 h (E. coli (ATCC 8739)): <100 cfu/mL
Change in log steps 48 h (E. coli (ATCC 8739)): ≤−1.2 log steps
cfu/mL 48 h (E. coli (ATCC 8739)): <100 cfu/mL
cfu/mL 0 h [3]: 1 600 cfu/mL
Change in log steps 24 h [3]: ≤−1.2 log steps
cfu/mL 24 h [3]: <100 cfu/mL
Change in log steps 48 h [3]: ≤−1.2 log steps
cfu/mL 48 h [3]: <100 cfu/mL
cfu/mL 0 h (S. aureus (ATCC 6538)): 2 900 cfu/mL
Change in log steps 24 h (S. aureus (ATCC 6538)): ≤−1.4 log steps
cfu/mL 24 h (S. aureus (ATCC 6538)): <100 cfu/mL
Change in log steps 48 h (S. aureus (ATCC 6538)): ≤−1.4 log steps
cfu/mL 48 h (S. aureus (ATCC 6538)): <100 cfu/mL
cfu/mL 0 h (C. albicans (ATCC 10231)): 1 500 cfu/mL
Change in log steps 24 h (C. albicans (ATCC 10231)): ≤−1.2 log steps
cfu/mL 24 h (C. albicans (ATCC 10231)): <100 cfu/mL
Change in log steps 48 h (C. albicans (ATCC 10231)): ≤−1.1 log steps
cfu/mL 48 h (C. albicans (ATCC 10231)): <100 cfu/mL
cfu/mL 0 h (A. niger (ATCC 16404)): 1 500 cfu/mL
Change in log steps 24 h (A. niger (ATCC 16404)): ≤−1.2 log steps
cfu/mL 24 h (A. niger (ATCC 16404)): <100 cfu/mL
Change in log steps 48 h (A. niger (ATCC 16404)): ≤−1.2 log steps
cfu/mL 48 h (A. niger (ATCC 16404)): <100 cfu/mL
Change in log steps 6 d (A. niger (ATCC 16404)): ≤−1.2 log steps
cfu/mL 6 d (A. niger (ATCC 16404)): <100 cfu/mL
morphological and histological evaluation of cornea (rabbit eyes (cornea) [4]): dense stromata with very few clefts and well-arranged keratocytes

Refractive index (Refractive index): 1,3494
Compound: CCCCCCCCCC(F)(F)C(F)(F)C(F)(F)C(F)(F)C(F)(F)C(F)(F)F [Example F6H9]

solubility [7]: 57 µg/mL
Compound: CC(C)OC(=O)CCC/C=C\C[C@@H]1[C@@H](CC[C@@H](O)CCc2ccccc2)[C@H](O)C[C@@H]1O [latanoprost, isopropyl-(Z)-7[(1R,2R,3R,5S)3,5-dihydroxy-2-[(3R)-3-hydroxy-5-phenylpentyl]cyclopentyl]-5-heptenoate]
solubility in water [1]: practically insoluble
